According to patent US20100311714A1, “1H-IMIDAZO[4,5-c]QUINOLINONE COMPOUNDS” (priority 2009, published 2010):

Test system: PKB Ser473 phosphorylation in Rat1-myr-HA-p110 beta cells
Test: Reverse protein array, PKB Ser473 phosphorylation in Rat1-myr-HA-p110 beta cells
Assay type: cell-based
Details: Rattus norvegicus, 0.5 h, 30 minutes compound incubation, read-out: p-PKB/IC50_beta

SMILES | IC50 [µM]
CNc1ncc(-c2ccc3ncc4c(c3c2)n(-c2ccc(OCCOC)nc2C)c(=O)n4C)cn1 [Example 13.5, 1-[6-(2-Methoxy-ethoxy)-2-methyl-pyridin-3-yl]-3-methyl-8-(2-methylamino-pyrimidin-5-yl)-1,3-dihydro-imidazo[4,5-c]quinolin-2-one] | 0.0116
CCNc1cc(-c2ccc3ncc4c(c3c2)n(-c2ccc(N(C)CCOC)nc2C)c(=O)n4C)cnc1C [Example 15.6, 8-(5-Ethylamino-6-methyl-pyridin-3-yl)-1-{6-[(2-methoxy-ethyl)-methyl-amino]-2-methyl-pyridin-3-yl}-3-methyl-1,3-dihydro-imidazo[4,5-c]quinolin-2-one] | 0.007
Cc1ccc(-n2c(=O)n(C)c3cnc4ccc(-c5cncc(NC(C)C)c5)cc4c32)c(C)n1 [Example 14.8, 1-(2,6-Dimethyl-pyridin-3-yl)-8-(5-isopropylamino-pyridin-3-yl)-3-methyl-1,3-dihydro-imidazo[4,5-c]quinolin-2-one] | 0.0614
Cc1nc(N(C)C)ccc1-n1c(=O)n(C)c2cnc3ccc(-c4cncc(N)c4)cc3c21 [Example 19.5, 8-(5-Amino-pyridin-3-yl)-1-(6-dimethylamino-2-methyl-pyridin-3-yl)-3-methyl-1,3-dihydro-imidazo[4,5-c]quinolin-2-one] | 0.0112
COCc1ncc(-c2ccc3ncc4c(c3c2)n(-c2ccc(OC)nc2OC)c(=O)n4C)cc1OC [Example 8.12, 1-(2,6-Dimethoxy-pyridin-3-yl)-8-(5-methoxy-6-methoxymethyl-pyridin-3-yl)-3-methyl-1,3-dihydro-imidazo[4,5-c]quinolin-2-one] | 0.0816
Cc1nc(F)ccc1-n1c(=O)n(C)c2cnc3ccc(-c4cncc(N)c4)cc3c21 [Example 7.16, 8-(5-Amino-pyridin-3-yl)-1-(6-fluoro-2-methyl-pyridin-3-yl)-3-methyl-1,3-dihydro-imidazo[4,5-c]quinolin-2-one] | 0.0233
COc1ccc(-n2c(=O)n(C)c3cnc4ccc(-c5cnc(N)c(C(F)(F)F)c5)cc4c32)c(OC)n1 [Example 8.1, 8-(6-Amino-5-trifluoromethyl-pyridin-3-yl)-1-(2,6-dimethoxy-pyridin-3-yl)-3-methyl-1,3-dihydro-imidazo[4,5-c]quinolin-2-one] | 0.0128
CNc1ncc(-c2ccc3ncc4c(c3c2)n(-c2ccc(F)nc2C)c(=O)n4C)cc1C(F)(F)F [Example 7.13, 1-(6-Fluoro-2-methyl-pyridin-3-yl)-3-methyl-8-(6-methylamino-5-trifluoromethyl-pyridin-3-yl)-1,3-dihydro-imidazo[4,5-c]quinolin-2-one] | 0.0076
COc1ncccc1-n1c(=O)n(C)c2cnc3ccc(-c4ccc(F)nc4)cc3c21 [Example 1.8, 8-(6-Fluoro-pyridin-3-yl)-1-(2-methoxy-pyridin-3-yl)-3-methyl-1,3-dihydro-imidazo[4,5-c]quinolin-2-one] | 0.324
COCCN(C)c1ccc(-n2c(=O)n(C)c3cnc4ccc(-c5cnc(N(C)C)nc5)cc4c32)c(C)n1 [Example 15.5, 8-(2-Dimethylamino-pyrimidin-5-yl)-1-{6-[(2-methoxy-ethyl)-methyl-amino]-2-methyl-pyridin-3-yl}-3-methyl-1,3-dihydro-imidazo[4,5-c]quinolin-2-one] | 0.132
Cc1ccc(-n2c(=O)n(C)c3cnc4ccc(-c5cnc(N)c(C(F)(F)F)c5)cc4c32)c(C)n1 [Example 14.5, 8-(6-Amino-5-trifluoromethyl-pyridin-3-yl)-1-(2,6-dimethyl-pyridin-3-yl)-3-methyl-1,3-dihydro-imidazo[4,5-c]quinolin-2-one] | 0.0108
COc1ncccc1-n1c(=O)n(C)c2cnc3ccc(-c4cnc(N(C)C)nc4)cc3c21 [Example 1.9, 8-(2-Dimethylamino-pyrimidin-5-yl)-1-(2-methoxy-pyridin-3-yl)-3-methyl-1,3-dihydro-imidazo[4,5-c]quinolin-2-one] | 0.0603
COCCOc1cc(-c2ccc3ncc4c(c3c2)n(-c2ccc(OC)nc2OC)c(=O)n4C)cnc1C [Example 8.9, 1-(2,6-Dimethoxy-pyridin-3-yl)-8-[5-(2-methoxy-ethoxy)-6-methyl-pyridin-3-yl]-3-methyl-1,3-dihydro-imidazo[4,5-c]quinolin-2-one] | 0.0395
COCCOc1ccc(-n2c(=O)n(C)c3cnc4ccc(-c5cncc(N6CCC6)c5)cc4c32)c(C)n1 [Example 22.2, 8-(5-Azetidin-1-yl-pyridin-3-yl)-1-[6-(2-methoxy-ethoxy)-2-methyl-pyridin-3-yl]-3-methyl-1,3-dihydro-imidazo[4,5-c]quinolin-2-one] | 0.0321
CNc1ncc(-c2ccc3ncc4c(c3c2)n(-c2cccnc2C)c(=O)n4C)cn1 [Example 2.2, 3-Methyl-8-(2-methylamino-pyrimidin-5-yl)-1-(2-methyl-pyridin-3-yl)-1,3-dihydro-imidazo[4,5-c]quinolin-2-one] | 0.0147
COCCN(C)c1ccc(-n2c(=O)n(C)c3cnc4ccc(-c5cnc(CO)c(OC)c5)cc4c32)c(C)n1 [Example 15.9, 8-(6-Hydroxymethyl-5-methoxy-pyridin-3-yl)-1-{6-[(2-methoxy-ethyl)-methyl-amino]-2-methyl-pyridin-3-yl}-3-methyl-1,3-dihydro-imidazo[4,5-c]quinolin-2-one] | 0.0404

SMILES | IC50 [µM]
CCNc1cc(-c2ccc3ncc4c(c3c2)n(-c2ccc(OC)nc2C)c(=O)n4C)cnc1C [Example 11.7, 8-(5-Ethylamino-6-methyl-pyridin-3-yl)-1-(6-methoxy-2-methyl-pyridin-3-yl)-3-methyl-1,3-dihydro-imidazo[4,5-c]quinolin-2-one] | 0.0075
CCNc1cc(-c2ccc3ncc4c(c3c2)n(-c2ccc(N3CC(F)(F)C3)nc2C)c(=O)n4C)cnc1CO [Example 24.3, 1-[6-(3,3-Difluoro-azetidin-1-yl)-2-methyl-pyridin-3-yl]-8-(5-ethylamino-6-hydroxymethyl-pyridin-3-yl)-3-methyl-1,3-dihydro-imidazo[4,5-c]quinolin-2-one] | < 0.00457
COc1ccc(-c2ccc3ncc4c(c3c2)n(-c2cccnc2)c(=O)n4C)cn1 [Example 5.4, 8-(6-Methoxy-pyridin-3-yl)-3-methyl-1-pyridin-3-yl-1,3-dihydro-imidazo[4,5-c]quinolin-2-one] | 0.152
CNc1ncc(-c2ccc3ncc4c(c3c2)n(-c2ccc(N(C)CCOC)nc2C)c(=O)n4C)cn1 [Example 15.2, 1-{6-[(2-Methoxy-ethyl)-methyl-amino]-2-methyl-pyridin-3-yl}-3-methyl-8-(2-methylamino-pyrimidin-5-yl)-1,3-dihydro-imidazo[4,5-c]quinolin-2-one] | 0.0214
COc1ccc(-c2ccc3ncc4c(c3c2)n(-c2ncccc2C)c(=O)n4C)cn1 [Example 3.13, 8-(6-Methoxy-pyridin-3-yl)-3-methyl-1-(3-methyl-pyridin-2-yl)-1,3-dihydro-imidazo[4,5-c]quinolin-2-one] | 0.945
CCNc1cc(-c2ccc3ncc4c(c3c2)n(-c2ccc(OCCOC)nc2C)c(=O)n4C)cnc1C [Example 13.4, 8-(5-Ethylamino-6-methyl-pyridin-3-yl)-1-[6-(2-methoxy-ethoxy)-2-methyl-pyridin-3-yl]-3-methyl-1,3-dihydro-imidazo[4,5-c]quinolin-2-one] | < 0.00457
CNc1ccc(-c2ccc3ncc4c(c3c2)n(-c2cnc(F)cc2C)c(=O)n4C)cn1 [Example 16.4, 1-(6-Fluoro-4-methyl-pyridin-3-yl)-3-methyl-8-(6-methylamino-pyridin-3-yl)-1,3-dihydro-imidazo[4,5-c]quinolin-2-one] | 0.141
Cc1nc(F)ccc1-n1c(=O)n(C)c2cnc3ccc(-c4cnc(N)c(CO)c4)cc3c21 [Example 7.17, 8-(6-Amino-5-hydroxymethyl-pyridin-3-yl)-1-(6-fluoro-2-methyl-pyridin-3-yl)-3-methyl-1,3-dihydro-imidazo[4,5-c]quinolin-2-one] | 0.212
CNc1cc(-c2ccc3ncc4c(c3c2)n(-c2ccc(C(F)(F)F)nc2C)c(=O)n4C)cnc1CO [Example 33.2, 8-(6-Hydroxymethyl-5-methylamino-pyridin-3-yl)-3-methyl-1-(2-methyl-6-trifluoromethyl-pyridin-3-yl)-1,3-dihydro-imidazo[4,5-c]quinolin-2-one] | < 0.00447
CCOc1ccc(-c2ccc3ncc4c(c3c2)n(-c2ccc(N(C)CCOC)nc2C)c(=O)n4C)cn1 [Example 15.3, 8-(6-Ethoxy-pyridin-3-yl)-1-{6-[(2-methoxy-ethyl)-methyl-amino]-2-methyl-pyridin-3-yl}-3-methyl-1,3-dihydro-imidazo[4,5-c]quinolin-2-one] | 0.0279
COc1ccc(-c2ccc3ncc4c(c3c2)n(-c2cccnc2OC)c(=O)n4C)cn1 [Example 1.1, 1-(2-Methoxy-pyridin-3-yl)-8-(6-methoxy-pyridin-3-yl)-3-methyl-1,3-dihydro-imidazo[4,5-c]quinolin-2-one] | 0.065
Cc1ccc(-n2c(=O)n(C)c3cnc4ccc(-c5cnc(N(C)C)nc5)cc4c32)c(C)n1 [Example 14.3, 8-(2-Dimethylamino-pyrimidin-5-yl)-1-(2,6-dimethyl-pyridin-3-yl)-3-methyl-1,3-dihydro-imidazo[4,5-c]quinolin-2-one] | 0.0403
CNc1ccc(-c2ccc3ncc4c(c3c2)n(-c2ccc(NC(=O)COC)nc2C)c(=O)n4C)cn1 [Example 20.4, 2-Methoxy-N-{6-methyl-5-[3-methyl-8-(6-methylamino-pyridin-3-yl)-2-oxo-2,3-dihydro-imidazo[4,5-c]quinolin-1-yl]-pyridin-2-yl}-acetamide] | 0.0095
COCC(=O)Nc1ccc(-n2c(=O)n(C)c3cnc4ccc(-c5cncc(OC(C)C)c5)cc4c32)c(C)n1 [Example 20.5, N-{5-[8-(5-Isopropoxy-pyridin-3-yl)-3-methyl-2-oxo-2,3-dihydro-imidazo[4,5-c]quinolin-1-yl]-6-methyl-pyridin-2-yl}-2-methoxy-acetamide] | 0.167
CNc1cc(-c2ccc3ncc4c(c3c2)n(-c2ccc(F)nc2C)c(=O)n4C)cnc1CO [Example 7.11, 1-(6-Fluoro-2-methyl-pyridin-3-yl)-8-(6-hydroxymethyl-5-methylamino-pyridin-3-yl)-3-methyl-1,3-dihydro-imidazo[4,5-c]quinolin-2-one] | 0.0158
